We go through one molecule from patent US10047096B2, “Substituted pyridobenzodiazepinone-derivatives and use thereof” (Bayer Pharma Aktiengesellschaft, priority 2014, dated 2018).

The IC50 is the point on the concentration scale where inhibition reaches its midpoint. Lower therefore signals greater potency in that assay.

The target in one assay is human PDGFRβ (Homo sapiens (Human), UniProt P09619). The assay can be described thus: PDGFRβ kinase assay (PDGFRβ-HTRF). The conditions noted are these: 10 μM ATP; some mean values from multiple determinations. The class given is biochemical. The essentials: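 GST-fused human PDGFRβ fragment (R561-L1106) from Sf9 cells was preincubated 15 min with compound in 50 mM HEPES pH 7.5, 10 mM MgCl2, 2.5 mM DTT, 0.01% Triton X-100; substrate was biotinylated poly-Glu,Tyr (4:1).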
On the technique in general: TR-FRET usually uses a lanthanide donor and a delayed reading to cut background.

The target of assay [1] is pPDGFRβ in normal human dermal fibroblasts (NHDF) (Homo sapiens (Human), UniProt P09619). The assay can be described thus: Cellular pPDGFRβ inhibition assay. The class given is cell-based. To be noted: NHDF stimulated with 50 ng/ml PDGF-BB, 1 h. The protocol:
Thereafter, 50 ng/ml recombinant human PDGF-BB (R&D Systems, Cat. No. 220-BB-050) and a dilution series of the test substances to be examined in DMSO were added to the cells. The total volume per well was 100 μl. After incubation under the abovementioned conditions for one hour, the Opti-MEM® I Reduced Serum Medium was tapped out and discarded. Subsequently, the lysis buffer [Phospho PDGFRβ (Tyr751) Assay Whole Cell Lysate Kit, MSD, Cat. No. K150DVD-2] was made up according to the manufacturer's instructions and 70 μl of this mixture per well were added. The lysed cell samples were either stored at −20° C. or analysed immediately after the lysis in a Meso Scale SECTOR® Imager 2400 according to the abovementioned manufacturer's instructions. The measurement data were presented as percentage PDGFRβ stimulation compared to PDGF-BB-stimulated but substance-untreated cells. The IC50 values were calculated by employing the nonlinear regression (curve fit) function of GraphPad Prism 6 (La Jolla, Calif., USA).

Chain of human PDGFRβ (P09619 561-1106): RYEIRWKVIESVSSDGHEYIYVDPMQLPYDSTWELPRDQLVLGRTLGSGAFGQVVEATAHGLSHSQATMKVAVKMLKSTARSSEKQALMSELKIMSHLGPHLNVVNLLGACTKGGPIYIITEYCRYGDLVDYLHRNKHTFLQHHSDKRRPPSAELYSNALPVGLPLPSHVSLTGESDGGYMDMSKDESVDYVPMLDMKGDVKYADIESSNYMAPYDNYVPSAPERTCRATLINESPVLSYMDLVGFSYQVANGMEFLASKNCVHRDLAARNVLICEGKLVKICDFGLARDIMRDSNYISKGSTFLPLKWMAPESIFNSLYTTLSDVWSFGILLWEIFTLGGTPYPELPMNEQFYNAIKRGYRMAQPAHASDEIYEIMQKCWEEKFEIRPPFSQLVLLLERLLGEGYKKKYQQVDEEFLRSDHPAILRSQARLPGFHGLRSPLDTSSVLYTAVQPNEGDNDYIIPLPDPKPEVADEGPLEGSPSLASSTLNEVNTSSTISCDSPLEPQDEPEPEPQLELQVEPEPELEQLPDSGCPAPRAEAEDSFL
Chain of pPDGFRβ in normal human dermal fibroblasts (NHDF) (P09619 33-1106): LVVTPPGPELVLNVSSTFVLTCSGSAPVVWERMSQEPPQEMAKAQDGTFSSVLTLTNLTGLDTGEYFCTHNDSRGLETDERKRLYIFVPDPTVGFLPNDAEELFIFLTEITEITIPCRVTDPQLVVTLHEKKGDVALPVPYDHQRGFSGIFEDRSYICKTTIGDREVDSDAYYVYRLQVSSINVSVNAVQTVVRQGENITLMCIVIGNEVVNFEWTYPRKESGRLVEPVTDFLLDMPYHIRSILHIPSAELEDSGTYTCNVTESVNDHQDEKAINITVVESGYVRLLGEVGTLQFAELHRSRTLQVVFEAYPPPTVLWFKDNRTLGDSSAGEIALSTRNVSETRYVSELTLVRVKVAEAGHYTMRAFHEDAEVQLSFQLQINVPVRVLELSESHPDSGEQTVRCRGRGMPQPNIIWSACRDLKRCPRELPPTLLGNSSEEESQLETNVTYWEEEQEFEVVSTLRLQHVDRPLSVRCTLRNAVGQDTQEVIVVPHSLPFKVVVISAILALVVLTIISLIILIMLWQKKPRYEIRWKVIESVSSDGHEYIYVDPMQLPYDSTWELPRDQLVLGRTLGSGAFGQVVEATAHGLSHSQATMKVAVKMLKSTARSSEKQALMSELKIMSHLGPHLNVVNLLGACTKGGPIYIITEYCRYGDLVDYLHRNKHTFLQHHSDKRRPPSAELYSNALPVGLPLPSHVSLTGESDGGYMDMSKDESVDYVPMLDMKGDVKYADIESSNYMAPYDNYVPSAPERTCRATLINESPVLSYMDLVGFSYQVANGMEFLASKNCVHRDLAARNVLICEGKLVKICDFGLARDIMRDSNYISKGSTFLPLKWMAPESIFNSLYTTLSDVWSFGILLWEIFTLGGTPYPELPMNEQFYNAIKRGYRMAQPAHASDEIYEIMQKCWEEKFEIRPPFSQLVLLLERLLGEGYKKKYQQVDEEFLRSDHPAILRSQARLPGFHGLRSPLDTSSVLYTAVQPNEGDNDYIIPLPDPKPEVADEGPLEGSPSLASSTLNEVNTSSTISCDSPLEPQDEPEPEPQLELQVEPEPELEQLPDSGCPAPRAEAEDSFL

For the molecule `Cc1ccc(O)cc1Nc1ccnc2c1C(=O)Nc1cc(CNC(C)C)ccc1N2` [Example 19, 4-[(5-Hydroxy-2-methylphenyl)amino]-8-[(isopropylamino)methyl]-6,11-dihydro-5H-pyrido[2,3-b][1,5]benzodiazepin-5-one], the IC50 worked out at 2.02 nM at human PDGFRβ and 40.9 nM in assay [1].
